For one test, the target named is T1, Estrogen-Rezeptor (Oryctolagus cuniculus, UniProt G1SML6).
T1 construct: Es wurden weibliche Kaninchen (weiße Neuseeländer) im Gewicht von 1,5 bis 2 kg in Barbituratnarkose getötet, die Uteri entnommen; from tissue; host or cells: rabbit uterus cytosol (100 000 g supernatant of the homogenate)
T1 sequence (G1SML6 1-598): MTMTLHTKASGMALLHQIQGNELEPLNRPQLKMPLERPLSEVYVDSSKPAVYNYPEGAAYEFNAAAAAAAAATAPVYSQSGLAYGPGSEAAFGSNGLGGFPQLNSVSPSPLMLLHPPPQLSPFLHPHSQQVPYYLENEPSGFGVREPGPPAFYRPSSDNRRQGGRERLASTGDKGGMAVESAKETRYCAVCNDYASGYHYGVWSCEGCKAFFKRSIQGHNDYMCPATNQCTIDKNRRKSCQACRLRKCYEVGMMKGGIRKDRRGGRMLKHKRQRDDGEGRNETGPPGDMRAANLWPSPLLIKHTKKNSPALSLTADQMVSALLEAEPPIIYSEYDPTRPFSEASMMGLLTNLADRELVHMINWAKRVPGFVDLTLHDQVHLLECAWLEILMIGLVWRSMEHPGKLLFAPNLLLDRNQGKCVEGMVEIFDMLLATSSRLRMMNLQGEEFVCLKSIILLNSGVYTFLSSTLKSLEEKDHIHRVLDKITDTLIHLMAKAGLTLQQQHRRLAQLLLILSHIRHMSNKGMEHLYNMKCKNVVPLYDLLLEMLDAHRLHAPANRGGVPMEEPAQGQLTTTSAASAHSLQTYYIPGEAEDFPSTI
The experiment in a line: Estrogen receptor affinity, competitive binding with [3H]-Ethinylestradiol in uterus cytosol. Also noted: species or system Kaninchen. The note with it: quotient of IC50 of 17β-Estradiol and of test substance; rabbit uterus cytosol; tracer [3H]-Ethinylestradiol 3 nM; 0 to 4 °C, 18 h. As to the method:
Die Affinität zum Estrogen Rezeptor wurde in Kaninchen-Uterus-Cytosol bestimmt durch competitive Bindung von ^3H-markiertem Tracer und der jeweils zu testenden Verbindungen in Konzentrationsreihen, die die IC50 einschlossen. […] Das nach Zentrifugieren bei 16 000 g und 100 000 g gewonnene Cytosol wurde portionsweise schockgefroren und bei -30 °C aufbewahrt. Das geeignet verdünnte Cytosol (Rezeptorkonzentration ca. 0,3 nM) wurde mit dem Tracer [^3H]-Ethinylestradiol (3nM) und den zu prüfenden Competitoren bei 0 bis 4 °C für 18 Stunden inkubiert. Der freie Tracer wurde durch Adsorption an Aktivkohle/Dextran (1 %/0,1 %) und Zentrifugation abgetrennt und die gebundene ^3H-Aktivität im Überstand gemessen.

A short description of test [1]: Adjuvant arthritis in male rats, oral, 21 days. In kind it is in vivo, Lewis-Ratten. To be noted: for Sekundärarthritis Score: 8 per group, group sum, max. 72 (arthritic control); for % Hemmung Primärarthritis max. Wirkung: swelling of injected left hind paw. As to the method: Die Adjuvansarthritis bei Lewis-Ratten ist ein gut bekanntes und etabliertes Modell für die chronische Rheumatoid-Arthritis des Menschen [Newbould BB: Chemotherapy of arthritis induced in rats by mycobacterial adjuvant. Br. J. Pharmacol. 21:127-136 (1963); Hirschelmann R: Die 6-Sulfanilamidoindazol-Arthritis und die Adjuvansarthritis der Ratte als Modelle zur Testung von Antiphlogistika. Dissertation B (Habil.-Schrift), Halle, 1976]
Die Arthritis wurde durch Injektion von 0,1 ml Freund'sches Adjuvans in die linke Hinterpfote ausgelöst. Prüfparameter waren die Hemmung der Schwellung der linken Hinterpfote und der Grad der Sekundärarthritis durch Beurteilung der Schwellung der drei anderen Pfoten. Tabelle 3

The subject of another test is VCAM-1. The test is described as follows: Inhibition of TNFα-induced VCAM-1 expression in cultured endothelial cells (histological assessment). In kind it is cell-based, humanen Ursprungs. To be noted: cultured human endothelial cells. From the text: (§1) J. Clin. Endocrinol. Metab. 7:1619-1624 (1994) ausgeführt. Als Vergleich zu […] 17β-Estradiol, welches mit (x) gekennzeichnet wurde. Tabelle 1

The nature of test [2]: Pentetrazol kindling, seizure stages in male mice. In kind it is in vivo, Mäuse. As to the method:
Aus Tabelle 2 ist ersichtlich, daß J 861 - 14,15α-Methylen-8-dehydro-17α-estradiol z.B. bereits in einer Dosierung von 1 mg/kg nach einmaliger oraler Gabe eine Stunde vor der krampfauslösenden Pentetrazol-Injektion an männlichen Mäusen das Krampfstadium 3 hemmt. In steigender Dosierung und bei längerer Substanzapplikation werden auch die anderen Krampfstadien beeinflußt.

In the next test the test system is ICAM-1. The test is described as follows: Inhibition of TNFα-induced ICAM-1 expression in cultured endothelial cells (histological assessment). In kind it is cell-based, humanen Ursprungs. On the set-up: key: +: wenig wirksam; ++: gut wirksam; +++: sehr gut wirksam. To be noted: cultured human endothelial cells.
From the text: as §1

Test [3] is classed as in vivo, Mann. From the text: Die aufgezeigten Systeme […] Studie an ä[…]. […] Alter von 52 bis 63 Jahren über 6 Monate […] Probanden nahm eine weitere Medikation ein. Bei 6 der 12 Probanden ergab […]-, Leber- und […] vor Beginn der Studie bei allen Probanden unauffällig. Auch die Plasma-[…] Testosteron > 12 nmol/[…] Testosteron > 0,2 nmol/[…] 6 Probanden […] OGTT erhöhte Gesamtcholesterol- und […] die In-vivo-Bestimmung der LDL-Cholesterol-Oxidation und die Hormonanalysen wurden zu Studienbeginn, danach wöchentlich und einen Tag […] und morgendlichem Fasten jeweils zwischen 8 und 10 Uhr morgens).

The nature of test [4]: Carrageenin paw oedema of the male rat. In kind it is in vivo, Ratte. The note with it: 24 hours after provocation of the oedema, inflammation no longer acute.
The mark [5] stands for this setting: 1,0 mg/kg, single oral dose one hour before pentetrazol.

Turning to `C[C@]12CCC3=C(CCc4cc(O)ccc43)[C@@H]1CC[C@H]2O` [J 811, 8-Dehydro-17α-estradiol], the “relative Bindungsaffinität zum Estrogen-Rezeptor (RBA)” value on Estrogen-Rezeptor is recorded as 21%.

For `C[C@]12CCC3=C(CCc4cc(O)ccc43)[C@@]13C[C@H]3C[C@H]2O` [J 861, 14,15α-Methylen-8-dehydro-17α-estradiol], in test [1] (1 mg/kg oral), the “Sekundärarthritis Score” value was found to be 72 and the “% Hemmung Primärarthritis max. Wirkung” value amounted to 16%. Besides, in test [1] (10 mg/kg oral), the “Sekundärarthritis Score” value is 46 and the “% Hemmung Primärarthritis max. Wirkung” value is listed as 38%. Moreover, in test [1] (25 mg/kg oral), the “Sekundärarthritis Score” value stood at 38 and the “% Hemmung Primärarthritis max. Wirkung” value is 61%. In test [1] (50 mg/kg oral), the “Sekundärarthritis Score” value was found to be 35 and the “% Hemmung Primärarthritis max. Wirkung” value was 47%. Also, the “relative Bindungsaffinität zum Estrogen-Rezeptor (RBA)” value on Estrogen-Rezeptor is on record as 32%. Moreover, the “Hemmung der Expression von VCAM-1” value with VCAM-1 is on record as “+ + +”. For the same compound, in test [2] (10 mg/kg), the “Krampfstadien 1/2 Kl (Krampfindex gesenkt)” value is listed as “-”, the “Krampfstadien 1/2 LZ[s] (Latenzzeit bis zur Ausprägung der Krämpfe erhöht)” value (shortened to “Krampfstadien 1/2 LZ[s]”) was “-”, the “Krampfstadien 3 Kl (Krampfindex gesenkt)” value was “++” and the “Krampfstadien 3 LZ[s] (Latenzzeit bis zur Ausprägung der Krämpfe erhöht)” value (shortened to “Krampfstadien 3 LZ[s]”) is given as “-”. Also, in test [2] (10 mg/kg), the “Krampfstadien 4/5/6 Kl (Krampfindex gesenkt)” value is on record as “+” and the “Krampfstadien 4/5/6 LZ[s] (Latenzzeit bis zur Ausprägung der Krämpfe erhöht)” value (“Krampfstadien 4/5/6 LZ[s]” for short) is reported as “++”. For the same compound, in test [2] (100 mg/kg), the “Krampfstadien 1/2 Kl (Krampfindex gesenkt)” value is “-”, the “Krampfstadien 1/2 LZ[s]” value is given as “-”, the “Krampfstadien 3 Kl (Krampfindex gesenkt)” value is on record as “++” and the “Krampfstadien 3 LZ[s]” value is given as “-”. For the same compound, in test [2] (100 mg/kg), the “Krampfstadien 4/5/6 Kl (Krampfindex gesenkt)” value is “+” and the “Krampfstadien 4/5/6 LZ[s]” value is reported as “++”. In addition, in test [2] (setting [5]), the “Krampfstadien 1/2 Kl (Krampfindex gesenkt)” value is “-”, the “Krampfstadien 1/2 LZ[s]” value was “-”, the “Krampfstadien 3 Kl (Krampfindex gesenkt)” value was “+++” and the “Krampfstadien 3 LZ[s]” value is “-”. In test [2] (setting [5]), the “Krampfstadien 4/5/6 Kl (Krampfindex gesenkt)” value is “+” and the “Krampfstadien 4/5/6 LZ[s]” value is given as “+”. For the same compound, in the test with ICAM-1, the “Hemmung der Expression von ICAM-1” value is recorded as “+ + +”.

As for `NC(=O)N1c2ccccc2C=Cc2ccccc21` [Carbamazepin, reference compound], in test [2] (24 mg/kg), the “Krampfstadien 1/2 Kl (Krampfindex gesenkt)” value was “-”, the “Krampfstadien 1/2 LZ[s]” value is listed as “+”, the “Krampfstadien 3 Kl (Krampfindex gesenkt)” value was “-” and the “Krampfstadien 3 LZ[s]” value is reported as “+”. In test [2] (24 mg/kg), the “Krampfstadien 4/5/6 Kl (Krampfindex gesenkt)” value is given as “+” and the “Krampfstadien 4/5/6 LZ[s]” value is “++”.

With `C[C@]12CC[C@@H]3c4ccc(O)cc4CC[C@H]3[C@@H]1CC[C@H]2O` [17α-Estradiol], in test [1] (1 mg/kg oral), the “Sekundärarthritis Score” value came to 43 and the “% Hemmung Primärarthritis max. Wirkung” value amounted to 36%. Besides, in test [1] (10 mg/kg oral), the “Sekundärarthritis Score” value is reported as 35 and the “% Hemmung Primärarthritis max. Wirkung” value was 39%. For the same compound, the “Hemmung der Expression von VCAM-1” value in the test with VCAM-1 is given as “+ +”. Besides, in test [3] (2 mg daily, 6 months, older men, includes missing SHBG rise), the “Einfluß auf die gewählten Hormonparameter” value is listed as “nicht signifikant beeinflußt”. For the same compound, the “Schlafqualität und Libido” value in test [3] (2 mg daily, 6 months, reported by subjects) is on record as “Verbesserung”. In addition, the “Freies Testosteron” value in test [3] (Versuchsende, after 6 months 2 mg daily, 12 overweight men 52-63 years, Versuchsbeginn 0.32 ± 0.14) amounted to 0.33 ± 0.15 nmol/L. The same compound returned a DHEA in test [3] (Versuchsende, after 6 months 2 mg daily, 12 overweight men 52-63 years, Versuchsbeginn 14.3 ± 10.6) of 13.46 ± 8.13 nmol/L. This compound registered a Gesamt-Testosteron in test [3] (Versuchsende, after 6 months 2 mg daily, 12 overweight men 52-63 years, Versuchsbeginn 16.5 ± 4.6) of 15.6 ± 5.1 nmol/L. In test [3] (Versuchsende, after 6 months 2 mg daily, 12 overweight men 52-63 years, Versuchsbeginn 17 ± 10), this compound gave an Insulin of 15 ± 9 mlE/L. In test [3] (Versuchsende, after 6 months 2 mg daily, 12 overweight men 52-63 years, Versuchsbeginn 38 ± 17), this compound came in with an SHBG of 39 ± 18 nmol/L. The DHEAS in test [3] (Versuchsende, after 6 months 2 mg daily, 12 overweight men 52-63 years, Versuchsbeginn 5412 ± 3711) turned out to be 5660 ± 3292 nmol/L. The “Lp(a)” value in test [3] (Versuchsende, after 6 months 2 mg daily, Versuchsbeginn 6.0 ± 1.0) worked out at 5.7 ± 0.7 mg/dL. For the same compound, in test [3] (Versuchsende, after 6 months 2 mg daily, Versuchsbeginn 154 ± 10.5), the LDL-Cholesterol amounted to 135 ± 5.2 mg/dL. Moreover, the Gesamt-Cholesterol in test [3] (Versuchsende, after 6 months 2 mg daily, Versuchsbeginn 225 ± 11.1, p<0.05) amounted to 195 ± 5.7 mg/dL. The compound also registered a Triglyceride in test [3] (Versuchsende, after 6 months 2 mg daily, Versuchsbeginn 226 ± 31.1, p<0.05) of 132 ± 1.5 mg/dL. Also, the LDL-Cholesterol-Oxidation entry in test [3] (older men under 17α-Estradiol, blood samples, figures not given) is “deutliche Verzögerung”. The “Hemmung der Expression von ICAM-1” value with ICAM-1 is given as “+ +”.

As for `O=C(O)Cc1ccccc1Nc1c(Cl)cccc1Cl` [Diclofenac-Natrium], in test [4], the Hemmeffekte entry is recorded as “nur noch geringe Hemmeffekte”.

Consider `C[C@]12CC[C@@H]3c4ccc(O)cc4CC[C@H]3[C@@H]1CC[C@@H]2O` [17β-Estradiol, reference compound], for which the “Sekundärarthritis Score” value in test [1] (1 mg/kg oral) stood at 47; in test [1] (10 mg/kg oral), 36. The results for the “% Hemmung Primärarthritis max. Wirkung” value in test [1] (1 mg/kg oral) and in test [1] (10 mg/kg oral) were 21% and 35%, respectively. The “Hemmung der Expression von VCAM-1” value in the test with VCAM-1 is given as “+ +”. The “Hemmung der Expression von ICAM-1” value in the test with ICAM-1 is recorded as “+”.

The values are drawn from patent publication EP0753300B1, “Use of antioxidative steroids for the manufacture of pharmaceutical preparations for substition therapy in man” (priority 1995, dated 1997).
